Where a name gives a salt, the structure may show the parent alone. Read-outs that look alike come from different tables or passages of the source.
Assays:
recombinant human MMP-13 = recombinant human MMP-13 (Homo sapiens, UniProt P45452); assay: biochemical
[1] = parameters: AUC (0-∞): unit not given beside the values; conditions: for t½ Hour: Rat Intravenous 20 mpk
recombinant human MMP-2 = biological target: T1, recombinant human MMP-2 (Homo sapiens, UniProt P08253); assay: biochemical
T1 sequence (P08253 110-660): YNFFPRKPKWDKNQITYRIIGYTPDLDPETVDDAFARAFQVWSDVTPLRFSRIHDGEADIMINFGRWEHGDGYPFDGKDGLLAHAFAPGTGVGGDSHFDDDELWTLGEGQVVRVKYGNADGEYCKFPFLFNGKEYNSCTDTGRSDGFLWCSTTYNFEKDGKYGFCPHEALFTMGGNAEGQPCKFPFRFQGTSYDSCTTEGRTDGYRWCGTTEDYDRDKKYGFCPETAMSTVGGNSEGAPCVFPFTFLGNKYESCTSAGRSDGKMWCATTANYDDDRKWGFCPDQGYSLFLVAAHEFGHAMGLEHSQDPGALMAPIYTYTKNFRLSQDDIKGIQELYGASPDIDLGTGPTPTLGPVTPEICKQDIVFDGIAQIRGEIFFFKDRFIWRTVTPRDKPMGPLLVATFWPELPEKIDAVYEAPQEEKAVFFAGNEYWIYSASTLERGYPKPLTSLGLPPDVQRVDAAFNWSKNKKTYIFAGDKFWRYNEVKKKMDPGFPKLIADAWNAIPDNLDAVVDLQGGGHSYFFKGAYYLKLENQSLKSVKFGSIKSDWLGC

recombinant human MMP-1 = biological target: T2, recombinant human MMP-1 (Homo sapiens, UniProt P03956); assay: biochemical
T2 construct: made in house; host or cells: transfected HT-1080 cells (provided by Dr. Harold Welgus, Washington University)
T2 sequence (P03956 100-469): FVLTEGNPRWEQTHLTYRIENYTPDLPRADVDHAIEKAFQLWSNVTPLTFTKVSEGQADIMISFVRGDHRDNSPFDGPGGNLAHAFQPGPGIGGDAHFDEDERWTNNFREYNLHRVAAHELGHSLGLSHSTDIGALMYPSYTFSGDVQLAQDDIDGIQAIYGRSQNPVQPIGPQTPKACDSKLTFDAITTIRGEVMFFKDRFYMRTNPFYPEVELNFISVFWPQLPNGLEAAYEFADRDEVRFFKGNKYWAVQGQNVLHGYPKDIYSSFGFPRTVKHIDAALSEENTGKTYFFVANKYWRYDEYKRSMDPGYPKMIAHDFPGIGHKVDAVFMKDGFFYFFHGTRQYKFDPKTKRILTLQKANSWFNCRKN

recombinant human MMP-9 = recombinant human MMP-9 (Homo sapiens, UniProt P14780); assay: biochemical; conditions: Inhibition Table B; read-out: MMP-9 IC50
[2] = Inhibition Table B, read-out: MMP-13 IC50
[3] = Inhibition Table B, read-out: MMP-2 IC50
[4] = Inhibition Table B, read-out: MMP-1 IC50

Sequence of recombinant human MMP-9 (P14780 107-707 limits assumed): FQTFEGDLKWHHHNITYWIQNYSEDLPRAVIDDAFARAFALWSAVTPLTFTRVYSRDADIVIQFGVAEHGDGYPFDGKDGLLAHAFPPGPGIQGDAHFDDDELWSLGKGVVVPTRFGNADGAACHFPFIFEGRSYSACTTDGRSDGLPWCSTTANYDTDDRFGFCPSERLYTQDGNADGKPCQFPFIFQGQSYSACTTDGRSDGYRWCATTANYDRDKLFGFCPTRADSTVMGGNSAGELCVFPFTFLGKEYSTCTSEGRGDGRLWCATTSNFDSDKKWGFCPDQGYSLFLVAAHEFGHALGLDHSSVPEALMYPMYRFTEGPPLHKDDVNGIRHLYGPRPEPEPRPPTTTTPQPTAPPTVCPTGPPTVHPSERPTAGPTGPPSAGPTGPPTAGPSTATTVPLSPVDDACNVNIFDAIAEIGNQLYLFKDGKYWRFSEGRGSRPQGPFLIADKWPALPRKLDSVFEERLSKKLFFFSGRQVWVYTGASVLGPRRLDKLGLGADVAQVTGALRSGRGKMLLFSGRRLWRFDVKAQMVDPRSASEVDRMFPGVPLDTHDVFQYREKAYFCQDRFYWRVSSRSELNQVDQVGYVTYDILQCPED

Row | SMILES | t½ Hour [1] | IC50 (recombinant human MMP-13; [2]) | IC50 (recombinant human MMP-9) | IC50 (recombinant human MMP-2; [3]) | IC50 (recombinant human MMP-1; [4]) | other results
1 | CC(=O)N1CCC(C(=O)NO)(S(=O)(=O)c2ccc(Oc3ccccc3)cc2)CC1 [Example 12] | – | – | – | – | – | IC50 (recombinant human MMP-13): < 0.1 nM; AUC (0-∞) ([1]; rat, in vivo): 22.11; t1/2 ([1]; rat, in vivo): 0.86 h; Blood Level @ 3 min ([1]; rat, in vivo, iv, 20 mg/kg): 73.54 µg/mL; IC50 (recombinant human MMP-2; MMP-2 IC50 (nM)): < 0.1 nM; IC50 (recombinant human MMP-1): 464 nM
2 | Cc1cc(Oc2ccc(S(=O)(=O)C3(C(=O)NO)CCNCC3)cc2)ccc1Cl.Cl [Example 79] | 1.82 h | – | – | – | – | –
3 | O=C(O)CN1CCC(C(=O)NO)(S(=O)(=O)c2ccc(Oc3ccc(Cl)cc3)cc2)CC1 [Example 88, 4-[[4-(4-chlorophenoxy)-phenyl]sulfonyl]-4-[(hydroxyamino)-carbonyl]-1-piperidineacetic Acid, Monohydrochloride] | – | 0.2 nM | 0.5 nM | 0.2 nM | 1100 nM | –
4 | O=C(NO)C1(S(=O)(=O)c2ccc(Oc3ccc(Cl)cc3)cc2)CCN(CCN2CCOCC2)CC1 [Example 89, 4-[[4-(4-chlorophenoxy)-phenyl]sulfonyl]-N-hydroxy-1-[2-(4-morpholinyl)ethyl]-4-piperidine-carboxamide, Dihydrochloride] | – | 0.25 nM | 0.4 nM | 0.15 nM | 1200 nM | –
5 | O=C(NO)C1(S(=O)(=O)c2ccc(-c3ccc(Cl)cc3)cc2)CCNCC1 [Example 91, 4-[(4′-chloro[1,1′-biphenyl]-4-yl)sulfonyl]-N-hydroxy-4-piperidinecarboxamide, Monohydrochloride] | – | 2.1 nM | 40 nM | 1.5 nM | 1800 nM | –
6 | O=C(NO)C1(S(=O)(=O)c2ccc(Oc3ccccc3)cc2)CCOCC1 [Example 94, Tetrahydro-N-hydroxy-4-[(4-phenoxyphenyl)sulfonyl]-2H-pyran-4-carboxamide] | 1.71 h | < 0.1 nM | – | < 0.1 nM | – | –
7 | Cc1ccc(Oc2ccc(S(=O)(=O)C3(C(=O)NO)CCOCC3)cc2)cc1C [Example 96, 4-[[4-(3,4-dimethyl-phenoxy)phenyl]ssulfonyl]tetrahydro-N-hydroxy-2H-pyran-4-carboxamide] | – | 0.3 nM | 1.3 nM | 0.2 nM | 5000 nM | –
8 | O=C(NO)C1(S(=O)(=O)c2ccc(Oc3ccc(Cl)cc3)cc2)CCOCC1 [Example 100, 4-[[4-(4-chlorophenoxy)-phenyl]sulfonyl]-tetrahydro-N-hydroxy-2H-pyran-4-carboxamide] | 1.50 h | – | – | – | – | –
9 | O=C(O)CCc1ccc(Oc2ccc(S(=O)(=O)C3(C(=O)NO)CCOCC3)cc2)cc1 [Example 105, 4-[4-[[tetrahydro-4-[(hydroxyamino)carbonyl]-2H-pyran-4-yl]sulfonyl]phenoxy]benzenepropanoic Acid] | – | 0.85 nM | 114 nM | 3500 nM | > 10000 nM | –
10 | O=C(NO)C1(S(=O)(=O)c2ccc(Oc3ccccc3)cc2)CCS(=O)(=O)CC1 [Example 110] | – | 0.5 nM | 10 nM | 0.4 nM | 2700 nM | –
11 | O=C(NO)C1(S(=O)(=O)c2ccc(Sc3ccc(O)cc3)cc2)CCSCC1 [Example 114] | – | 0.4 nM | 31.6 nM | 0.65 nM | 3000 nM | –
12 | NCCc1ccc(Oc2ccc(S(=O)(=O)C3(C(=O)NO)CCSCC3)cc2)cc1 [Example 116, tetrahydro-N-hydroxy-4-[[4-[4-tyramine)phenoxy]phenyl] Sulfonyl 2H-thiopyran-4-carboxamide] | – | 5.5 nM | 15.3 nM | 2 nM | 2350 nM | –
13 | O=C(NO)C1(S(=O)(=O)c2ccc(Sc3ccncc3)cc2)CCSCC1 [Example 119, tetrahydro-N-hydroxy-4-[[4-(4-pyridinylthio)-phenyl]sulfonyl]-2H-thiopyran-4-carboxamide, Monohydrochloride] | – | 1.7 nM | 30 nM | 1.5 nM | > 10000 nM | –
14 | CC(=O)N1CCN(c2ccc(Oc3ccc(S(=O)(=O)C4(C(=O)NO)CCOCC4)cc3)cc2)CC1 [Example 123, 4-[[4-[4-(4-acetyl-1-piperazinyl)phenoxy]phenyl]sulfonyl]-tetrahydro-N-hydroxy-2H-pyran-4-carboxamide, Trifluoroacetic Acid Salt] | – | 1.8 nM | 27.8 nM | 1.8 nM | 3600 nM | –
15 | O=C(NO)C1(S(=O)(=O)c2ccc(Oc3ccc(SC(F)(F)F)cc3)cc2)CCOCC1 [Example 382, Tetrahydro-N-hydroxy-4-[[4-[4-[(trifluoromethyl)thio]phenoxy]phenyl]-sulfonyl]-2H-pyran-4-carboxamide] | 1.71 h | – | – | – | – | –
16 | O=C(NO)C1(S(=O)(=O)c2ccc(Oc3ccc(C(F)(F)F)cc3)cc2)CCN(CCN2CCOCC2)CC1 [Example 388, N-hydroxy-1-[2-(4-morpholinyl)-ethyl]-4-[[4-[4-(trifluoromethyl)phenoxy]-phenyl]sulfonyl]-4-piperidinecarboxamide, Dihydrochloride] | 0.94 h | – | – | – | – | –
17 | O=C(NO)C1(S(=O)(=O)c2ccc(Oc3ccc(C(F)(F)F)cc3)cc2)CCN(Cc2cccnc2)CC1 [Example 390, N-hydroxy-1-(3-pyridinylmethyl)-4-[[4-[4-trifluoromethyl)phenoxy]phenyl]-sulfonyl]-4-piperidinecarboxamide, Dihydrochloride] | 1.50 h | – | – | – | – | –
18 | O=C(NO)C1(S(=O)(=O)c2ccc(Oc3ccc(C(F)(F)F)cc3)cc2)CCN(Cc2ccccn2)CC1 [Example 391, N-hydroxy-1-(2-pyridinylmethyl)-4-[[4-[4-(trifluoromethyl)phenoxy]phenyl]-sulfonyl]-4-piperidinecarboxamide, Dihydrochloride] | 1.45 h | – | – | – | – | –
19 | Cl.O=C(NO)C1(S(=O)(=O)c2ccc(Oc3ccc4c(c3)OCCO4)cc2)CCN(C2CC2)CC1 [Example 408, 1-cyclopropyl-4-[[4-[(2,3-dihydro-1,4-benzodioxin-6-yl)oxy]phenyl]-sulfonyl]-N-hydroxy-4-piperidine-carboxamide, Monohydrochloride] | 3.30 h | – | – | – | – | –
20 | Cl.O=C(NO)C1(S(=O)(=O)c2ccc(Oc3ccc(OC(F)(F)F)cc3)cc2)CCNCC1 [Example 410, N-hydroxy-4-[[4-[(trifluoromethoxy)phenoxy]phenyl]sulfonyl]-4-piperidinecarboxamide, Monohydrochloride] | 1.78 h | – | – | – | – | –
21 | C#CCN1CCC(C(=O)NO)(S(=O)(=O)c2ccc(Oc3ccc(C(C)C)cc3)cc2)CC1.Cl [Example 414, N-hydroxy-4-[[4-[4-(1-methylethyl)phenoxy]phenyl]sulfonyl]-1-(2-propynyl)-4-piperidinecarboxamide, Monohdyrochloride] | 0.73 h | – | – | – | – | –
22 | COCCN1CCC(C(=O)NO)(S(=O)(=O)c2ccc(Oc3ccc(OC(F)(F)F)cc3)cc2)CC1.Cl [Example 416, N-hydroxy-1-(2-methoxyethyl)-4-[[4-[4-(trifluoromethoxy)phenoxy]phenyl]sulfonyl}-4-piperidinecarboxamide, Monohydrochloride] | 2.94 h | – | – | – | – | –
23 | COCCN1CCC(C(=O)NO)(S(=O)(=O)c2ccc(Oc3ccc(C(F)(F)F)cc3)cc2)CC1.Cl [Example 418, N-hydroxy-1-(2-methoxyethyl)-4-[[4-[4-(trifluoromethyl)-phenoxy]phenyl]sulfonyl}-4-piperidinecarboxamide, Monohydrochloride] | 2.42 h | – | – | – | – | –
24 | Cl.O=C(NO)C1(S(=O)(=O)c2ccc(Oc3ccc(C(F)(F)F)cc3)cc2)CCN(C2CC2)CC1 [Example 427, 1-cyclopropyl-N-hydroxy-4-[[4-[4-(trifluoromethyl)phenoxy]phenyl]sulfonyl]-4-piperidinecarboxamide, Monohydrochloride] | 2.85 h | – | – | – | – | –
25 | CCN1CCC(C(=O)NO)(S(=O)(=O)c2ccc(OCc3ccc(C(F)(F)F)cc3)cc2)CC1.Cl [Example 438, 1-ethyl-N-hydroxy-4-[[4-[[4-[trifluoromethyl)phenyl]methoxy]-phenyl]sulfonyl]-4-piperidine-carboxamide, Monohydrochloride] | 2.14 h | – | – | – | – | –

Source: US20010039287A1, “AROMATIC SULFONE HYDROXAMIC ACID METALLOPROTEASE INHIBITOR” (priority 1997, published 2001)
